The record followed here is patent US20250333482A1, “MODULATORS OF MESOTHELIAL ECM MOVEMENT” (Helmholtz Zentrum München Deutsches Forschungszentrum Für …, priority 2021, published 2025).

Structures are written as SMILES.

The test system of experiment [1] is TGFβ signaling. Nature of the experiment: Ex vivo mouse lung biopsies treated with granulocytes, then TGFβ inhibitors. It is filed as cell-based. The following applies: for matrix invasion: in the presence of granulocytes; for phosphorylated SMAD (pSMAD): mouse lung biopsies treated with granulocytes. The method, then: (§1) C57BL/6J male mice (6-8 weeks age) used to study the movement of lung matrix. After organ withdrawal 4 mm biopsy punches of murine lungs were generated. To obtain ectopic labeling of matrix, the inventors generated a labelling solution by mixing NHS-ester 1:1 with 100 mM pH 9.0 sodium bicarbonate buffer. Sterile Whatman filter paper (Sigma Aldrich) biopsy punches where soaked in NHS-labelling solution, and locally placed on the lung biopsy surface. After one minute, the labelling punch was removed. Mouse lung biopsies were cocultured in the RPMI medium (10% FBS with 1% Pen/Strep and 0.1% AmB) consist of different sub types of immune cells (0.1×10^6 cells/biopsy) isolated from the healthy and idiopathic pulmonary fibrosis human donors. Mouse lung biopsies with immune cells were then cultured in the ex vivo condition provided with 5% C02 at 37° C.
(§2) After 48 hours, mouse lung biopsies were fixed with the 4% formalin and incubated for overnight at 4° C. followed by PBS wash. Human lung tissues where obtained, labelled, and cultivated for 24 hours as described above.
(§3) Matrix invasion was calculated using histological sections, quantifying FITC signal per area via ImageJ (1.52i). Quantification of immunolabeling was performed in randomly distributed ROIs/FOVs. Multiphoton images were analyzed using Fiji plugins Fraklac V. 2.5 and LocalThickness_V-4.0.2.
The inventors sought to characterize the signaling pathways by which immune cells trigger matrix invasion and fibrosis and we naturally sought to investigate the known chief proponent, TGFβ. They wondered whether the fibrotic cascade of immune cells might start with mesothelial TGFβ expression. Mouse lung biopsies were treated with granulocytes, followed by administering two TGFβ inhibitors, Repsox and LDN-212854, in separate experiments (FIG. 2A). Inhibition of TGFβ signaling in both chemical assays decreased phosphorylated SMAD (pSMAD), which is the major mediator of TGFβ-induced signaling. Furthermore, inhibiting TGFβ reduced matrix invasion, even in the presence of granulocytes. Moreover, adding granulocytes alone led to increased phosphorylated SMAD signaling in mesothelium. These findings indicate granulocytes trigger TGFβ expression in mesothelium to initiate matrix accumulation and irrigation.

Experiment [2] deals with C57BL/6J mice. Nature of the experiment: Pharmacologic treatment regime in the bleomycin-induced lung fibrosis model. It counts as in vivo, mouse. As to conditions: for pleural matrix pools: after bleomycin-induced injury. The method, then: The inventors generated a labelling solution by mixing 5 μl NHS-ester (25 mg/ml) with 5 μl of 100 mM pH 9.0 sodium bicarbonate buffer, combining with 40 μl PBS to a total volume of 50 μl. Labelling solution was applied intrapleurally (for lung and/or heart fibrosis model) under isoflurane anesthesia with a 30 G cannula. Abdominal labeling was performed by injecting 100 μl of labelling solution intra-peritoneal (for liver and/or kidney fibrosis model).
The oropharyngeal administration of bleomycin for the induction of pulmonary fibrosis is carried out in an antagonistic anesthesia in C57BL/6J mice of both sexes (6-8 weeks age). After the toe-pinch reflex is absent, the mouse is placed on the incisors of the upper jaw and thus kept in an upright position. The tongue is carefully fixed with is held to the side with tweezers and the nose of the animal is covered with tweezers. By keeping the nose closed, the mouse is forced to breathe through the mouth. With the help of a pipette, bleomycin is dissolved in a dosage of 2 units/kg KGW in 80 μl PBS carefully into the throat. As soon as the animal has inhaled the solution, it will be
Hot plate transferred (duration approx. 30 to 60 seconds). After antagonization animals were housed for 14 days. Nintedanib was added 1 hour before bleomycin installation and every other day intra peritoneal 10 μM.
Pirfenidone (0.07 mg/kg), Nintedanib (0.21 mg/kg) and Cathepsin Inhibitor B (0.15 mg/kg) were injected 1 hour before bleomycin installation and every other day intra peritoneal in a volume of 100 μl in physiological saline solution.
as §3

Experiment [3] relates to fibrotic human lung tissue. Briefly: Ex vivo matrix flow in fibrotic human lung tissue. It is filed as cell-based. The procedure:
All tissues (PFA, ST) used in this study were obtained with properly informed consent of patients. All experimental procedures were performed in accordance with the Ethics committee vote number/Study protocol number: 333-10 Parent Proposal number: BA34/2018.
as §1, §2

Setting [4] is: bleomycin, intra peritoneal 1 hour before and every other day.

Consider `c1cc(-c2cnn3cc(-c4ccc(N5CCNCC5)cc4)cnc23)c2cccnc2c1` [LDN-212854], for which, in experiment [1], the matrix invasion entry was “reduced” and the “phosphorylated SMAD (pSMAD)” value is listed as “decreased”.

For the compound `COC(=O)c1ccc2c(c1)NC(=O)/C2=C(\Nc1ccc(N(C)C(=O)CN2CCN(C)CC2)cc1)c1ccccc1` [Nintedanib], in experiment [2], the pleural matrix pools entry is “rescue”. Besides, in experiment [2] (setting [4]), the bleomycin-induced mortality entry is on record as “prevent”, the “matrix invasion into lungs (matrix movements)” value (shortened to “matrix invasion into lungs”) is recorded as “inhibiting matrix movements” and the “survival rates of lung injured animals” value is “comparable”.

In the case of `Cc1ccc(=O)n(-c2ccccc2)c1` [Pirfenidone], in experiment [2], the pleural matrix pools entry is listed as “rescue”. For the same compound, in experiment [2] (setting [4]), the bleomycin-induced mortality entry is given as “prevent”, the “matrix invasion into lungs” value is on record as “inhibiting matrix movements” and the “survival rates of lung injured animals” value is “comparable”.

In the case of `Cc1cccc(-c2[nH]ncc2-c2ccc3ncccc3n2)n1` [Repsox], in experiment [1], the matrix invasion result was “reduced” and the “phosphorylated SMAD (pSMAD)” value is recorded as “decreased”.

Regarding `CC(NC(=O)[C@H](Cc1ccccc1)NC(=O)OCc1ccccc1)C(=O)CF` (stereo partly shown) [Z-FA-FMK], the fluid matrix flows result in experiment [3] is recorded as “blocks”. Moreover, the pleural matrix pools entry in experiment [2] is recorded as “rescue”. Moreover, in experiment [2] (setting [4]), the bleomycin-induced mortality result is on record as “abrogated”, the fibrosis development result is reported as “completely prevented”, the “matrix invasion into lungs” value is on record as “completely prevented” and the “survival rates of lung injured animals” value is 100%. Also, the bleomycin-induced mortality entry in experiment [2] (bleomycin, intra peritoneal 1 hour before and every other day, listed as Cathepsin B inhibitor) is recorded as “prevent”.
